Key:
TMD8 cells = assay: 4-day proliferation assay, TMD8; type: cell-based; details: Homo sapiens, 96 h, 4 days incubation, CellTiterGLO, read-out: Anti-proliferation: TMD-8 IC50
Procedure: (§1) To assess anti-proliferative effects, MALT1 inhibitor test compounds were tested in 4-day proliferation assays using three different DLBCL cell lines.
(§2) Cells should be kept between 0.5-2.5 million cells per mL during culturing and cells should be supplemented every 2-3 days with fresh 50 μM beta-mercaptoenthanol. No beta-mercaptoethanol is used during the proliferation assay. OCI-Ly7 cells were propagated in IMDM (ThermoFisher) supplemented with 10% fetal bovine serum (HyClone), 2 mM L-glutamine (Sigma Aldrich) and 50 μg/mL Gentamycin. Cell passage numbers should not exceed 30 (for OCI-Ly3 cells with passage number lower than 10 were used).
(§3) 10,000 TMD8, 10,000 OCI-Ly3 or 2,000 OCI-Ly7 cells were seeded in 100 μL media per well and incubated for 4 days at 37° C. and 5% CO2. Cell plating numbers were chosen based on growth curves to ensure linear cell growth. After 4 days of incubation 50 μL CellTiterGLO reagent (Promega) were added to each well and luminescence was measured on the Envision after 10 min of incubation at room temperature.
(§4) LC=median of the low control values
(§5) An estimate of the slope of the plot in terms of the Hill coefficient was also obtained.

[1] = tested on: IL10 secretion by TMD8 ABC-DLBCL cells; assay: Human IL10 Mesoscale assay (TMD-8); type: cell-based; details: Homo sapiens, TMD8; TMD-8 cells, 24 h
In short: (§6)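 Read-out: MSD electrochemiluminescence of IL6/IL10 in supernatants. Cells (100,000/well, no beta-mercaptoethanol) were exposed to compounds at 15 μM down to 58.6 nM, 1:2 dilutions, for 24 h at 37° C, 5% CO2. Normalised between DMSO (high) and RN486 (low) controls.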

[2] = tested on: IL6 secretion by TMD8 ABC-DLBCL cells; assay: Human IL6 Mesoscale assay (TMD-8); type: cell-based; details: Homo sapiens, TMD8; TMD-8 cells, 24 h
In short: as §6

[3] = biological target: full-length MALT1 protein (Strep-MALT1(1-824)-His) (Homo sapiens (Human), UniProt Q9UDY8); assay: MALT1 Biochemical Protease Assay (Ac-LRSR-AMC substrate); details: 10 nM FL MALT1, 200 μM Ac-LRSR-AMC, 4 h at RT; read-out: MALT1_Biochemical activity (Ac-LRSR-amc) IC50
Sequence of full-length MALT1 protein (Strep-MALT1(1-824)-His) (Q9UDY8 whole entry): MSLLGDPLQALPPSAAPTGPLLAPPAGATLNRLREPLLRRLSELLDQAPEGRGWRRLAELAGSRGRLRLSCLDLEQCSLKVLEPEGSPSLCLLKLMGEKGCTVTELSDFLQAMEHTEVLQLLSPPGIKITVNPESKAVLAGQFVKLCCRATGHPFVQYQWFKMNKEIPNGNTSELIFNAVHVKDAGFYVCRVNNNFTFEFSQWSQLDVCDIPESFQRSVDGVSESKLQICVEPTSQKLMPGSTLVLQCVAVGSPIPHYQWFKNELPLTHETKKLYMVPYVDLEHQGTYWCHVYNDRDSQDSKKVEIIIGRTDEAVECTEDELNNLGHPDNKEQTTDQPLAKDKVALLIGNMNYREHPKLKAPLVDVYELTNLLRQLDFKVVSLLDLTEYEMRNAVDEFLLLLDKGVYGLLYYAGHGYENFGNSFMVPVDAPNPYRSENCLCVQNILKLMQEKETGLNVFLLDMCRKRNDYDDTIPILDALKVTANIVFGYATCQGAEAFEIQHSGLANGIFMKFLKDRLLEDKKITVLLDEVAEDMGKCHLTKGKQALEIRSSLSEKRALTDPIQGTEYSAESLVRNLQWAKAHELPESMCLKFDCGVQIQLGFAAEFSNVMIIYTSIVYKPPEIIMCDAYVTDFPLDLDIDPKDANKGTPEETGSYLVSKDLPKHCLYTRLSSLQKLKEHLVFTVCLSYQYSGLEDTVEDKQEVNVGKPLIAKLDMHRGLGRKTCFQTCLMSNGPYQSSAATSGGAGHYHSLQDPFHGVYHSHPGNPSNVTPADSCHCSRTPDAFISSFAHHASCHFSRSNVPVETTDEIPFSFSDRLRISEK
In short: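 Full-length MALT1 pre-incubated with compounds (30 μM to 0.5 nM, 11 threefold steps) for 50 min at RT. After Ac-LRSR-AMC was added, the reaction ran 4 h at RT and AMC fluorescence was read. IC50 and Hill slope from curve fitting against no-enzyme and no-compound controls.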

OCI-Ly3 cells = assay: 4-day proliferation assay, OCI-Ly3; type: cell-based, human; details: Homo sapiens, 96 h, 4 days incubation, CellTiterGLO, read-out: Anti-proliferation: OCI-LY-3 IC50
Procedure: as §1, §2, §3, §4, §5

Row | SMILES | IC50 (TMD8 cells) [nM] | IC50 [1] [nM] | IC50 [2] [nM] | IC50 [3] [nM] | IC50 (OCI-Ly3 cells) [nM]
1 | N#Cc1cc(NC(=O)c2cnn(-c3nccc4ncccc34)c2C(F)(F)F)cnc1-n1nccn1 [Cpd 100, N-(5-cyano-6-(2H-1,2,3-triazol-2-yl)pyridin-3-yl)-1-(1,6-naphthyridin-5-yl)-5-(trifluoromethyl)-1H-pyrazole-4-carboxamide] | ~5250 | 155 | 251 | 37 | 1950
2 | COc1ncc(NC(=O)c2cnn(-c3cccc4ncccc34)c2C(F)(F)F)cc1C#N [Cpd 85, N-(5-cyano-6-methoxypyridin-3-yl)-1-(quinolin-5-yl)-5-(trifluoromethyl)-1H-pyrazole-4-carboxamide] | > 20000 | 120 | 95 | 132 | 1660
3 | N#Cc1cc(NC(=O)c2cnn(-c3nccc4ccoc34)c2C(F)(F)F)cnc1-n1nccn1 [Cpd 99, N-(5-cyano-6-(2H-1,2,3-triazol-2-yl)pyridin-3-yl)-1-(furo[2,3-c]pyridin-7-yl)-5-(trifluoromethyl)-1H-pyrazole-4-carboxamide] | ~3240 | 47 | 68 | 11 | 650
4 | O=C(Nc1cnc(-n2nccn2)c(Cl)c1)c1cnn(-c2cnc(CO)c3ccccc23)c1C(F)(F)F [Cpd 385, N-(5-chloro-6-(2H-1,2,3-triazol-2-yl)pyridin-3-yl)-1-(1-(hydroxymethyl)isoquinolin-4-yl)-5-(trifluoromethyl)-1H-pyrazole-4-carboxamide] | 1510 | 166 | 214 | 54 | 837
5 | Cc1cncc2c(-n3ncc(C(=O)Nc4cnc(-n5nccn5)c(Cl)c4)c3C(F)(F)F)cccc12 [Cpd 33, N-(5-Chloro-6-(2H-1,2,3-triazol-2-yl)pyridin-3-yl)-1-(4-methylisoquinolin-8-yl)-5-(trifluoromethyl)-1H-pyrazole-4-carboxamide] | > 20000 | 1050 | 7410 | 1100 | > 20000
6 | NC(=O)c1cnn(-c2ncc(NC(=O)c3cnn(-c4cccc5ncccc45)c3C(F)(F)F)cc2Cl)n1 [Cpd 144, 2-(3-chloro-5-(1-(quinolin-5-yl)-5-(trifluoromethyl)-1H-pyrazole-4-carboxamido)pyridin-2-yl)-2H-1,2,3-triazole-4-carboxamide] | 2570 | 49 | 52 | 28 | 482
7 | O=C(Nc1cnc(-n2nccn2)c(Cl)c1)c1cnn(-c2nccc3ccccc23)c1C(F)(F)F [Cpd 57, N-(5-chloro-6-(2H-1,2,3-triazol-2-yl)pyridin-3-yl)-1-(isoquinolin-1-yl)-5-(trifluoromethyl)-1H-pyrazole-4-carboxamide] | ~8910 | 85 | 81 | 43 | 220
8 | N#Cc1cncc(NC(=O)c2cnn(-c3cncc4ccccc34)c2C(F)(F)F)c1 [Cpd 82, N-(5-cyanopyridin-3-yl)-1-(isoquinolin-4-yl)-5-(trifluoromethyl)-1H-pyrazole-4-carboxamide] | 6310 | 295 | 240 | 676 | ~1580
9 | COC(=O)c1cnn(-c2ncc(NC(=O)c3cnn(-c4cccc5ncccc45)c3C(F)(F)F)cc2Cl)n1 [Cpd 108, Methyl 2-(3-chloro-5-(1-(quinolin-5-yl)-5-(trifluoromethyl)-1H-pyrazole-4-carboxamido)pyridin-2-yl)-2H-1,2,3-triazole-4-carboxylate] | 1660 | > 302 | > 302 | 23 | 1120
10 | N#Cc1cc(NC(=O)c2cnn(-c3ccnc4ccoc34)c2C(F)(F)F)cnc1-n1nccn1 [Cpd 150, N-(5-cyano-6-(2H-1,2,3-triazol-2-yl)pyridin-3-yl)-1-(furo[3,2-b]pyridin-7-yl)-5-(trifluoromethyl)-1H-pyrazole-4-carboxamide] | > 7940 | 178 | 457 | 8 | 282
11 | O=C1COc2c(Cl)cc(NC(=O)c3cnn(-c4cncc5ccccc45)c3C(F)(F)F)cc2N1 [Cpd 87, N-(8-Chloro-3-oxo-3,4-dihydro-2H-benzo[b][1,4]oxazin-6-yl)-1-(isoquinolin-4-yl)-5-(trifluoromethyl)-1H-pyrazole-4-carboxamide] | ~13800 | 324 | 251 | 141 | 1700
12 | O=C(Nc1cnc(-c2nccs2)c(Cl)c1)c1cnn(-c2cncc3ccccc23)c1C(F)(F)F [compound 63, N-(5-chloro-6-(thiazol-2-yl)pyridin-3-yl)-1-(isoquinolin-4-yl)-5-(trifluoromethyl)-1H-pyrazole-4-carboxamide] | > 7940 | 1440 | 2040 | 295 | ~1150
13 | N#Cc1cc(NC(=O)c2cnn(-c3cccc4ncccc34)c2C(F)(F)F)cnc1-n1ncc(CO)n1 [Cpd 177, N-(5-cyano-6-(4-(hydroxymethyl)-2H-1,2,3-triazol-2-yl)pyridin-3-yl)-1-(quinolin-5-yl)-5-(trifluoromethyl)-1H-pyrazole-4-carboxamide] | 6610 | 363 | 933 | 44 | 1710
14 | N#Cc1cc(NC(=O)c2cnn(-c3ncnn4cccc34)c2C(F)(F)F)cnc1-n1nccn1 [Cpd 140, N-(5-cyano-6-(2H-1,2,3-triazol-2-yl)pyridin-3-yl)-1-(pyrrolo[2,1-f][1,2,4]triazin-4-yl)-5-(trifluoromethyl)-1H-pyrazole-4-carboxamide] | 5370 | 28 | 72 | 24 | 1170
15 | COC(=O)c1cc(NC(=O)c2cnn(-c3cncc4ccccc34)c2C(F)(F)F)cc(Cl)n1 [Cpd 74, Methyl 6-chloro-4-(1-(isoquinolin-4-yl)-5-(trifluoromethyl)-1H-pyrazole-4-carboxamido)picolinate] | > 20000 | 1380 | 1380 | 372 | 2450
16 | O=C(Nc1cnc(-n2ccnc2)c(Cl)c1)c1cnn(-c2cncc3ccccc23)c1C(F)(F)F [Cpd 70, N-(5-chloro-6-(1H-imidazol-1-yl)pyridin-3-yl)-1-(isoquinolin-4-yl)-5-(trifluoromethyl)-1H-pyrazole-4-carboxamide] | ~13800 | 891 | 1100 | 479 | ~1350
17 | O=C(Nc1cnc(-n2nccn2)c(F)c1)c1cnn(-c2cncc3ccccc23)c1C(F)(F)F [Cpd 61, N-(5-fluoro-6-(2H-1,2,3-triazol-2-yl)pyridin-3-yl)-1-(isoquinolin-4-yl)-5-(trifluoromethyl)-1H-pyrazole-4-carboxamide] | ~14100 | 224 | 263 | 102 | 1260
18 | N#Cc1cc(NC(=O)c2cnn(-c3nccn4nccc34)c2C(F)(F)F)cnc1-n1nccn1 [Cpd 425, N-(5-cyano-6-(2H-1,2,3-triazol-2-yl)pyridin-3-yl)-1-(pyrazolo[1,5-a]pyrazin-4-yl)-5-(trifluoromethyl)-1H-pyrazole-4-carboxamide] | 11000 | 112 | 339 | 389 | 905
19 | Cc1ncc(-n2ncc(C(=O)Nc3cnc(-n4nccn4)c(Cl)c3)c2C(F)(F)F)c2ccccc12 [Cpd 66, N-(5-chloro-6-(2H-1,2,3-triazol-2-yl)pyridin-3-yl)-1-(1-methylisoquinolin-4-yl)-5-(trifluoromethyl)-1H-pyrazole-4-carboxamide] | ~8710 | 132 | 331 | 69 | 810
20 | O=C(Nc1cnc(-n2nccn2)c(Cl)c1)c1cnn(-c2cccc3nnsc23)c1C(F)(F)F [Cpd 120, 1-(benzo[d][1,2,3]thiadiazol-7-yl)-N-(5-chloro-6-(2H-1,2,3-triazol-2-yl)pyridin-3-yl)-5-(trifluoromethyl)-1H-pyrazole-4-carboxamide] | 1950 | 85 | 102 | 30 | 325
